# ChEMBL document CHEMBL1131954, “Homoisofagomines: chemical-enzymatic synthesis and evaluation as alpha- and beta-glucosidase inhibitors” (Bioorg Med Chem Lett, 1999)
# Experiments:
# [1] = system: alpha-glucosidase (Saccharomyces cerevisiae); assay: Inhibitory activity against alpha-glucosidase of yeast; No inhibition
# [2] = system: Alpha-glucosidase (Saccharomyces cerevisiae); assay: Inhibitory activity against alpha-glucosidase of yeast at a concentration of 0.1 mM
compound,measurement,setting,value
C[C@@H]1NC[C@@H](CO)[C@@H](O)[C@@H]1O,Ki,[1],Not Active
same,inhibition,[2],< 20%
